The source of these data is US12325697B2 (Nimbus Clio, Inc., priority 2021, dated 2025).

Experiment [1] has as its system Phospho-Zap70 (Y-319) in Jurkat wild-type (clone E6-1) cells. Nature of the experiment: Jurkat pZAP70 HTRF Assay. The experiment is classed as cell-based. The conditions noted are these: Homo sapiens, anti-CD3 5 μg/ml, 3 hr, read-out: ZAP70 Jurkat EC50. (In general: In TR-FRET formats the signal depends on donor and acceptor labels being close together.)
For experiment [2], the system named is Jurkat (clone E6-1) cells, NFAT luciferase reporter. Nature of the experiment: Jurkat Reporter Assay (NFAT Luciferase). The experiment is classed as cell-based. To be noted: Homo sapiens, anti-CD3 stimulation, 6 hr, read-out: Jurkat NFAT EC50. For orientation: In a reporter assay the amount or activity of a reporter protein is the signal.
The target in experiment [3] is Recombinant human Cbl-b (aa 36-427) (Homo sapiens (Human), UniProt Q13191). Nature of the experiment: Cbl-b Biochemical Assay (TR-FRET). To be noted: read-out: TR-FRET hCbl-b IC50. The essentials: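 IC50 from 4-parameter fit of % inhibition (DMSO max, reference-inhibitor min), duplicate ten-point series. Compound preincubated with 6 nM Cbl-b, then Src-Zap70 (1-2.5 nM)/0.5 mM ATP reaction 60 min RT; EDTA quench with labelled UBE2D2-Ub and streptavidin-terbium, 60 min, HTRF at 520 nm.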
Sequence of Recombinant human Cbl-b (aa 36-427) (Q13191 36-427): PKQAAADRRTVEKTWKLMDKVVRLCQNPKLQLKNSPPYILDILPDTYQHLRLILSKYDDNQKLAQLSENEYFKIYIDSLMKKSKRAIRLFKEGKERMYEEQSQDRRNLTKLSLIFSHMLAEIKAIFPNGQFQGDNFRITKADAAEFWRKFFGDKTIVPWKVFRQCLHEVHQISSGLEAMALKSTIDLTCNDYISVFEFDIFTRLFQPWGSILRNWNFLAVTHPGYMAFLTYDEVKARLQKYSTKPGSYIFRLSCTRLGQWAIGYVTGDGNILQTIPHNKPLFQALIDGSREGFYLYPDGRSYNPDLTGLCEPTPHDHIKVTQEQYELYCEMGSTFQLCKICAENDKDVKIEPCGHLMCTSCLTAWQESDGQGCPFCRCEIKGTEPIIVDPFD

By EC50 is commonly meant the midpoint of the concentration-response curve. The IC50 is the concentration at which inhibition is half-maximal. Regarding `Cn1cnnc1-c1cnn(C)c1-c1cc(C2CC2)nc(N2Cc3ccc(CNCC4(O)CCCC4)cc3C2=O)c1` [AFQ-3, 2-{6-Cyclopropyl-4-[2-methyl-4-(4-methyl-1,2,4-triazol-3-yl)pyrazol-3-yl]pyridin-2-yl}-6-({[(1-hydroxycyclopentyl)methyl]amino}methyl)-3H-isoindol-1-one], the EC50 in experiment [1] and in experiment [2] was below 200 nM in each case. In addition, in experiment [3], the IC50 was at most 200 nM.

Consider `CCNc1cc(-c2ccc(C#N)cc2-c2nncn2C)cc(N2Cc3c(cc(NC)cc3C(F)(F)F)C2=O)n1` [AFA-2, 4-[2-(ethylamino)-6-[6-(methylamino)-1-oxo-4-(trifluoromethyl)-3H-isoindol-2-yl]pyridin-4-yl]-3-(4-methyl-1,2,4-triazol-3-yl)benzonitrile], for which the 50% effective concentration (EC50) is 200 to 1000 nM in experiment [1] and below 200 nM in experiment [2]. The IC50 in experiment [3] was at most 200 nM.

Regarding `Cn1cnnc1-c1cc(C#N)ccc1-c1cc(C2CC2)nc(N2Cc3ccc(CNCC4(O)CCC4)cc3C2=O)c1` [AFJ-1, 4-{2-Cyclopropyl-6-[6-({[(1-hydroxycyclobutyl)methyl]amino}methyl)-1-oxo-3H-isoindol-2-yl]pyridin-4-yl}-3-(4-methyl-1,2,4-triazol-3-yl)benzonitrile], the EC50 in experiment [1] and in experiment [2] was below 200 nM each time. In addition, the concentration for half-maximal inhibition (IC50) in experiment [3] is at most 200 nM.

Take `Cn1cnnc1-c1cnn(C)c1-c1cc(C2CC2)nc(N2Cc3c(cc(CO[C@H]4CCC[C@H]4O)cc3C(F)(F)F)C2=O)c1` [AGA-1, 2-{6-Cyclopropyl-4-[2-methyl-4-(4-methyl-1,2,4-triazol-3-yl)pyrazol-3-yl]pyridin-2-yl}-6-({1[(1R,2S)-2-hydroxycyclopentyl]oxy}methyl)-4-(trifluoromethyl)-3H-isoindol-1-one]: the concentration giving a half-maximal response (EC50) was 200 to 1000 nM in experiment [1] and below 200 nM in experiment [2]. For the same compound, in experiment [3], the concentration for half-maximal inhibition (IC50) is at most 200 nM.

For the compound `Cn1cnnc1-c1ccccc1-c1cccc(N2Cc3c(cc(CNCC4(O)CCC4)cc3C(F)(F)F)C2=O)c1` [AW-2, 6-((((1-Hydroxycyclobutyl)methyl)amino)methyl)-2-(2′-(4-methyl-4H-1,2,4-triazol-3-yl)-[1,1′-biphenyl]-3-yl)-4-(trifluoromethyl)isoindolin-1-one], the concentration for a half-maximal effect (EC50) in experiment [1] and in experiment [2] was below 200 nM each time. Also, the IC50 in experiment [3] is at most 200 nM.

Turning to `CCNc1cc(-c2ccc(C#N)cc2-c2nncn2C)cc(N2Cc3c(cc(CN4CCC[C@H](C)C4)cc3C(F)(F)F)C2=O)n1` [ADT-2, 4-[2-(Ethylamino)-6-(6-{[(3S)-3-methylpiperidin-1-yl]methyl}-1-oxo-4-(trifluoromethyl)-3H-isoindol-2-yl)pyridin-4-yl]-3-(4-methyl-1,2,4-triazol-3-yl)benzonitrile], the EC50 in experiment [1] and in experiment [2] was below 200 nM each time. Besides, in experiment [3], the IC50 was at most 200 nM.

`Cn1cnnc1-c1cc(Cl)ccc1-c1cccc(N2Cc3ccc(CNCC4(O)CCCC4)cc3C2=O)c1` [AGU-10, 2-[4′-Chloro-2′-(4-methyl-1,2,4-triazol-3-yl)-[1,1′-biphenyl]-3-yl]-6-({[(1-hydroxycyclopentyl)methyl]amino}methyl)-3H-isoindol-1-one]: the EC50 in experiment [1] and in experiment [2] was below 200 nM in each case. In addition, the half-inhibitory concentration (IC50) in experiment [3] was at most 200 nM.

Take `Cn1cnnc1-c1ccccc1-c1cccc(N2Cc3c(cc(CNCC(C)(C)O)cc3C(F)(F)F)C2=O)c1` [AZ-2, 6-(((2-Hydroxy-2-methylpropyl)amino)methyl)-2-(2′-(4-methyl-4H-1,2,4-triazol-3-yl)-[1,1′-biphenyl]-3-yl)-4-(trifluoromethyl)isoindolin-1-one]: the EC50 in experiment [1] and in experiment [2] was below 200 nM each time. In experiment [3], the concentration for half-maximal inhibition (IC50) was at most 200 nM.

For `CCNc1cc(-c2ccc(C#N)cc2-c2nncn2C)cc(N2Cc3c(cccc3C(F)(F)F)C2=O)n1` [ADP-8, 4-[2-(Ethylamino)-6-[1-oxo-4-(trifluoromethyl)-3H-isoindol-2-yl]pyridin-4-yl]-3-(4-methyl-1,2,4-triazol-3-yl)benzonitrile], the EC50 was 1000 to 10000 nM in experiment [1] and below 200 nM in experiment [2]. Besides, the IC50 in experiment [3] is at most 200 nM.

With `CCNc1cc(-c2c(-c3nncn3C)cnn2C)cc(N2Cc3c(cc(COCC4(N)CCC4)cc3C(F)(F)F)C2=O)n1` [AGF-3, 6-{[(1-Aminocyclobutyl)methoxy]methyl}-2-[6-(ethylamino)-4-[2-methyl-4-(4-methyl-1,2,4-triazol-3-yl)pyrazol-3-yl]pyridin-2-yl]-4-(trifluoromethyl)-3H-isoindol-1-one], the EC50 was in the range of 1000 to 10000 nM in experiment [1] and 200 to 1000 nM in experiment [2]. Further, the IC50 in experiment [3] was at most 200 nM.

Take `CCOc1cc(-c2ccc(C#N)cc2-c2nncn2C)cc(N2Cc3c(cc(CO)cc3C(F)(F)F)C2=O)n1` [AEW-2, 4-{2-Ethoxy-6-[6-(hydroxymethyl)-1-oxo-4-(trifluoromethyl)-3H-isoindol-2-yl]pyridin-4-yl}-3-(4-methyl-1,2,4-triazol-3-yl)benzonitrile]: the values for the 50% effective concentration (EC50) in experiment [1] and in experiment [2] were 200 to 1000 nM and below 200 nM, respectively. Moreover, the IC50 in experiment [3] was at most 200 nM.

For the compound `Cn1cnnc1-c1cc(Cl)ccc1-c1cccc(N2Cc3ccc(CNCC4(O)CCC4)cc3C2=O)c1` [AGV-1, 2-[4′-Chloro-2′-(4-methyl-1,2,4-triazol-3-yl)-[1,1′-biphenyl]-3-yl]-6-({[(1-hydroxycyclobutyl)methyl]amino}methyl)-3H-isoindol-1-one], the EC50 in experiment [1] and in experiment [2] was below 200 nM throughout. Further, the IC50 in experiment [3] was at most 200 nM.

On to `CCNc1cc(-c2c(-c3nncn3C)cnn2C)cc(N2Cc3c(cc(CO[C@@H]4CCC[C@@H]4O)cc3C(F)(F)F)C2=O)n1` (racemic) [ADB-1, (rac)-2-[6-(ethylamino)-4-[2-methyl-4-(4-methyl-1,2,4-triazol-3-yl)pyrazol-3-yl]pyridin-2-yl]-6-({[(1R,2S)-2-hydroxycyclopentyl]oxy}methyl)-4-(trifluoromethyl)-3H-isoindol-1-one], for which the EC50 in experiment [1] was 1000 to 10000 nM; in experiment [2] it was 200 to 1000 nM. In addition, the half-maximal inhibitory concentration (IC50) in experiment [3] is at most 200 nM.

Consider `CCNc1cc(-c2ccc(C#N)cc2-c2nncn2C)cc(N2Cc3c(cc([C@H](O)CN(C)C)cc3C(F)(F)F)C2=O)n1` (single isomer, unassigned) [AGL-1], for which the concentration for a half-maximal effect (EC50) is 200 to 1000 nM in experiment [1] and below 200 nM in experiment [2]. For the same compound, the IC50 in experiment [3] is at most 200 nM.

Consider `Cn1cnnc1-c1cc(Cl)ccc1-c1cc(C2CC2)nc(N2Cc3ccc(CNCC4(O)CCC4)cc3C2=O)c1` [AGW-6, 2-{4-[4-Chloro-2-(4-methyl-1,2,4-triazol-3-yl)phenyl]-6-cyclopropylpyridin-2-yl}-6-({[(1-hydroxycyclobutyl)methyl]amino}methyl)-3H-isoindol-1-one], for which the EC50 in experiment [1] and in experiment [2] was below 200 nM in each case. The IC50 in experiment [3] is at most 200 nM.

Take `Cn1cnnc1-c1cnn(C)c1-c1cc(C2CC2)nc(N2Cc3c(cc(CNCC4(O)CCC4)cc3C(F)(F)F)C2=O)c1` [ADR-3]: the EC50 in experiment [1] and in experiment [2] was below 200 nM throughout. For the same compound, the half-inhibitory concentration (IC50) in experiment [3] was at most 200 nM.

Take `CNCc1cc2c(c(C(F)(F)F)c1)CN(c1cc(-c3ccc(C#N)cc3-c3nncn3C)cc(C3CC3)n1)C2=O` [AGZ-1, 4-(2-Cyclopropyl-6-{6-[(methylamino)methyl]-1-oxo-4-(trifluoromethyl)-3H-isoindol-2-yl}pyridin-4-yl)-3-(4-methyl-1,2,4-triazol-3-yl)benzonitrile]: the EC50 in experiment [1] and in experiment [2] was below 200 nM in each case. Moreover, the IC50 in experiment [3] is at most 200 nM.

On to `CCNc1cc(-c2c(-c3nncn3C)cnn2C)cc(N2Cc3c(cc(COCC4(O)CCC4)cc3C(F)(F)F)C2=O)n1` [AED-2, 2-[6-(Ethylamino)-4-[2-methyl-4-(4-methyl-1,2,4-triazol-3-yl)pyrazol-3-yl]pyridin-2-yl]-6-{[(1-hydroxycyclobutyl)methoxy]methyl}-4-(trifluoromethyl)-3H-isoindol-1-one], for which the EC50 was 200 to 1000 nM in experiment [1] and below 200 nM in experiment [2]. In experiment [3], the IC50 was at most 200 nM.

On to `CC(C)c1cc(-c2ccc(F)cc2-c2nncn2C)cc(N2Cc3ccc(CNCC4(O)CCC4)cc3C2=O)n1` [AFX-1, 2-{4-[4-Fluoro-2-(4-methyl-1,2,4-triazol-3-yl)phenyl]-6-isopropylpyridin-2-yl}-6-({[(1-hydroxycyclobutyl)methyl]amino}methyl)-3H-isoindol-1-one], for which the EC50 in experiment [1] and in experiment [2] was below 200 nM in each case. Also, in experiment [3], the IC50 is at most 200 nM.

On to `CCNc1cc(-c2ccc(C#N)cc2-c2nncn2C)cc(N2Cc3c(cc(COCC(C)(C)O)cc3C(F)(F)F)C2=O)n1` [AFE-1, 4-[2-(ethylamino)-6-{6-[(2-hydroxy-2-methylpropoxy)methyl]-1-oxo-4-(trifluoromethyl)-3H-isoindol-2-yl}pyridin-4-yl]-3-(4-methyl-1,2,4-triazol-3-yl)benzonitrile], for which the concentration for a half-maximal effect (EC50) in experiment [1] was 200 to 1000 nM; in experiment [2], below 200 nM. Moreover, the IC50 in experiment [3] was at most 200 nM.

With `CCNc1cc(-c2ccc(F)cc2-c2nncn2C)cc(N2Cc3c(cc(COCC4(O)CCC4)cc3C(F)(F)F)C2=O)n1` [AFF-2, 2-[6-(Ethylamino)-4-[4-fluoro-2-(4-methyl-1,2,4-triazol-3-yl)phenyl]pyridin-2-yl]-6-{1[(1-hydroxycyclobutyl)methoxy]methyl}-4-(trifluoromethyl)-3H-isoindol-1-one], the EC50 in experiment [1] and in experiment [2] was below 200 nM each time. In experiment [3], the IC50 is at most 200 nM.
